The target of test [1] is T1, human STING (hSTING) (Homo sapiens, UniProt Q86WV6).
T1 construct: host or cells: HEK-Blue ISG cells (HEK293-derived SEAP reporter line)
In words: Inhibition test of intracellular human STING (hSTING) pathway using SEAP reporter cells (HEK-Blue ISG), stimulation with Compound 3. To be noted: Compound 3 10 nM stimulation, 21 hours; for IC50: read-out: hSTING inhibitory activity. Set-up: hSTING inhibitory activity: scale not given here. Format: cell-based. In outline: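 HEK-Blue ISG cells with IRF-inducible SEAP reporter, pretreated 1 h with compound (final 0.1 to 10 μM), then stimulated with Compound 3 (final 10 nM) for 21 h at 37° C. Supernatant SEAP measured colorimetrically; IC50 from log-concentration regression, normalized to stimulated (100%) and unstimulated (0%) controls.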

The test system of test [2] is STING activation (IFN-β production in THP-1 cells). In words: Human IFN-β production inhibition test by cGAMP stimulation in THP-1 cells. Format: cell-based. Further details: IFN-β bioinhibitory activity: scale not given here. To be noted: 2'3'-cGAMP transfection, 18 hours, IFN-β ELISA; for IC50: Homo sapiens, read-out: IFN-β bioinhibitory activity. As to the method: Human IFN-β production inhibition test by cGAMP stimulation
The inhibitory activity of test compounds against STING activation was evaluated by measuring the amount of IFN-β produced when human monocytic cell line THP-1 cells were stimulated with the endogenous ligand cGAMP.
After seeding THP-1 cells (ATCC) in a 96-well plate, PMA (Santa Cruz Biotechnology) adjusted to a concentration of 100 nM after addition was added, and incubated at 37° C. in a 5% CO2 incubator. It was cultured overnight (RPMI1640 medium containing 10% FBS, 50 U/mL penicillin/50 μg/mL streptomycin). A test compound solution adjusted to a final concentration of 0.001 to 1 μM was added to each well of this plate and cultured for 1 hour in a CO2 incubator (DMSO final concentration 0.1%). 0.12 μg/well of 2′3′-cGAMP (Invivogen, #tlrl-nacga23) was introduced into the cells by transfection using Lipofectamine2000 (Invitrogen) and cultured in a CO incubator for an additional 18 hours. After collecting the culture supernatant from each well, the amount of human IFN-β produced in the culture supernatant was measured by ELISA using R&D human IFN-β Duoset (R&D Systems).
Assuming that the human IFN-β production amount of the test compound-free and cGAMP-added group is 100%, and the human IFN-β production amount of the test compound-free and cGAMP-free group is 0%, the IC50 value was determined by regression analysis of the inhibitory rate determined from the amount of human IFN-β production at each compound concentration and the concentration of the test compound (logarithm).
Background: ELISA stands for enzyme-linked immunosorbent assay.

Bounds are passed on as bounds.

T1 sequence (Q86WV6 whole entry H232R): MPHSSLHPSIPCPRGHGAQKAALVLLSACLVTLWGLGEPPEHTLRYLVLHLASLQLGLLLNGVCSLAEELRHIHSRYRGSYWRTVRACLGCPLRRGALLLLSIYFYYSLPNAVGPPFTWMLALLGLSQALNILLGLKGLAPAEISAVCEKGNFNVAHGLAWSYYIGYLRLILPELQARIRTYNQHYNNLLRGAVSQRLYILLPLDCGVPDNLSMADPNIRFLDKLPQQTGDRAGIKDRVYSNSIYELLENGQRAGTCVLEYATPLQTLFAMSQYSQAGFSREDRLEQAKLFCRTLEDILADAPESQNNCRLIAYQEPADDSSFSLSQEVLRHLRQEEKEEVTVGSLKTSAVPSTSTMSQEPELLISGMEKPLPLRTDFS

On to `Clc1ccc2[nH]c(Nc3c[nH]c4ccc(Br)nc34)nc2c1` [Embodiment 32, N-(5-bromo-1H-pyrrolo[3,2-b]pyridin-3-yl)-5-chloro-1H-benzo[d]imidazol-2-amine], for which the hSTING inhibitory activity entry in test [1] is on record as “* *”. The IFN-β bioinhibitory activity entry in test [2] is reported as “* *”.
Take `Fc1ccc2[nH]c(Nc3c[nH]c4ccc(Br)cc34)nc2c1` [Embodiment 33, N-(5-bromo-1H-indol-3-yl)-5-fluoro-1H-benzo[d]imidazol-2-amine]: the hSTING inhibitory activity result in test [1] is on record as “* * *”. In addition, the IC50 in test [2] lay within 0.1 to 1 µM.
For `Clc1ccc2[nH]cc(Nc3nc4cc(Oc5ccccc5)ccc4[nH]3)c2n1` [Embodiment 35, N-(5-chloro-1H-pyrrolo[3,2-b]pyridin-3-yl)-5-phenoxy-1H-benzo[d]imidazol-2-amine], in that order: “* * *” and 0.1 to 1 µM.
With `COc1ccc2[nH]cc(Nc3nc4cc(Oc5ccccc5)ccc4[nH]3)c2n1` [Embodiment 36, N-(5-methoxy-1H-pyrrolo[3,2-b]pyridin-3-yl)-5-phenoxy-1H-benzo[d]imidazol-2-amine], the hSTING inhibitory activity result in test [1] is “* *”. In addition, the IFN-β bioinhibitory activity entry in test [2] was “* *”.
Consider `Clc1ccnc2c(Nc3nc4cc(Oc5ccccc5)ccc4[nH]3)c[nH]c12` [Embodiment 38, N-(7-chloro-1H-pyrrolo[3,2-b]pyridin-3-yl)-5-phenoxy-1H-benzo[d]imidazol-2-amine], for which, in test [1], the hSTING inhibitory activity entry is recorded as “* *”. In test [2], the IC50 is no less than 1 µM.
For `Cn1c(Nc2c[nH]c3ccc(Cl)nc23)nc2ccc(Oc3ccccc3)cc21` [Embodiment 44, N-(5-chloro-1H-pyrrolo[3,2-b]pyridin-3-yl)-1-methyl-6-phenoxy-1H-benzo[d]imidazol-2-amine] the same measures were “* *” and 0.1 to 1 µM.
Turning to `Cn1c(Nc2c[nH]c3ccc(Cl)cc23)nc2cc(C(F)(F)F)c(F)c(F)c21` [Embodiment 274, N-(5-Chloro-1H-indol-3-yl)-6,7-difluoro-1-methyl-5-(trifluoromethyl)-1H-benzo[d]imidazol-2-amine], the hSTING inhibitory activity entry in test [1] was “* * *”.
The same measure, in the same setting: next, `CN(C)n1c(Nc2c[nH]c3ccc(Cl)cc23)nc2cc(C(F)(F)F)c(F)cc21` [Embodiment 275, N2-(5-Chloro-1H-indol-3-yl)-6-fluoro-N1,N1-dimethyl-5-(trifluoromethyl)-1H-benzo[d] imidazole-1,2-didiamine]: “* * *”; `Cc1c(C(F)(F)F)ccc2c1nc(Nc1c[nH]c3ccc(Cl)cc13)n2C` [Embodiment 276, N-(5-Chloro-1H-indol-3-yl)-1,4-dimethyl-5-(trifluoromethyl)-1H-benzo[d]imidazol-2-amine]: “* * *”.
The same measure, in the same setting: next, `CNn1c(Nc2c[nH]c3ccc(C)cc23)nc2cc(C(F)(F)F)cc(F)c21` [Embodiment 277, 7-fluoro-N1-methyl-N2-(5-methyl-1H-indol-3-yl)-5-(trifluoromethyl)-1H-benzo[d]imidazole-1,2-diamine]: “* * *”; `CN(C)n1c(Nc2c[nH]c3ccc(F)c(F)c23)nc2cc(C(F)(F)F)cc(F)c21` [Embodiment 278, N2-(4,5-difluoro-1H-indol-3-yl)-7-fluoro-N1,N1-dimethyl-5-(trifluoromethyl)-1H-benzo[d] imidazole-1,2-diamine]: “* *”.
Consider `CN(C)n1c(Nc2c[nH]c3cc(F)c(F)cc23)nc2cc(C(F)(F)F)cc(F)c21` [Embodiment 279, N2-(5,6-difluoro-1H-indol-3-yl)-7-fluoro-N1,N1-dimethyl-5-(trifluoromethyl)-1H-benzo[d] imidazole-1,2-diamine], for which, in test [1], the hSTING inhibitory activity result is recorded as “* *”.
Still for that read-out and setting: next, `Cc1ccc2[nH]cc(Nc3nc4cc(C(F)(F)F)cc(F)c4n3N(C)C)c2c1` [Embodiment 280, 7-fluoro-N1,N1-dimethyl-N2-(5-methyl-1H-indol-3-yl)-5-(trifluoromethyl)-1H-benzo[d]imidazole-1,2-diamine]: “* * *”.
Take `Brc1ccc2[nH]cc(Nc3nc4ccccc4[nH]3)c2c1` [Example 1, N-(5-bromo-1H-indol-3-yl)-1H-benzo[d]imidazol-2-amine]: the hSTING inhibitory activity result in test [1] was “* *”.
For `c1ccc(-c2ccc3[nH]cc(Nc4nc5ccccc5[nH]4)c3c2)cc1` [Example 2, N-(5-phenyl-1H-indol-3-yl)-1H-benzo[d]imidazol-2-amine], in test [1], the IC50 was no less than 10 µM.
On to `Cc1cccc2[nH]c(Nc3c[nH]c4ccc(Br)cc34)nc12` [Example 5, N-(5-bromo-1H-indol-3-yl)-4-methyl-1H-benzo[d]imidazol-2-amine], for which the hSTING inhibitory activity result in test [1] was “* *”.
As to `Brc1cccc2[nH]cc(Nc3nc4ccccc4[nH]3)c12` [Example 9, N-(4-bromo-1H-indol-3-yl)-1H-benzo[d]imidazol-2-amine], the IC50 in test [1] is no less than 10 µM.
For `Brc1cnc2[nH]cc(Nc3nc4cc(Oc5ccccc5)ccc4[nH]3)c2c1` [Example 10, N-(5-bromo-1H-pyrrolo[2,3-b]pyridin-3-yl)-5-phenoxy-1H-benzo[d]imidazol-2-amine], in test [1], the hSTING inhibitory activity entry is listed as “* *”.
With `Brc1cc2c(Nc3nc4cc(Oc5ccccc5)ccc4[nH]3)c[nH]c2cn1` [Example 11, N-(5-bromo-1H-pyrrolo[2,3-c]pyridin-3-yl)-5-phenoxy-1H-benzo[d]imidazol-2-amine], the IC50 in test [1] fell in the range of 1 to 10 µM.
For `Brc1ccc2[nH]cc(Nc3nc4cc(Oc5cccnc5)ccc4[nH]3)c2c1` [Example 13, N-(5-bromo-1H-indol-3-yl)-5-(pyridin-3-yloxy)-1H-benzo[d]imidazol-2-amine], in test [1], the hSTING inhibitory activity result is on record as “* *”.
With `Fc1ccc2[nH]cc(Nc3nc4ccccc4[nH]3)c2c1` [Example 14, N-(5-fluoro-1H-indol-3-yl)-1H-benzo[d]imidazol-2-amine], the IC50 in test [1] is no less than 10 µM.
In the case of `Clc1ccc2[nH]cc(Nc3nc4ccccc4[nH]3)c2c1` [Example 15, N-(5-chloro-1H-indol-3-yl)-1H-benzo[d]imidazol-2-amine], the IC50 in test [1] was in the range of 1 to 10 µM.
With `Ic1ccc2[nH]cc(Nc3nc4ccccc4[nH]3)c2c1` [Example 16, N-(5-iodo-1H-indol-3-yl)-1H-benzo[d]imidazol-2-amine], the hSTING inhibitory activity entry in test [1] is “* *”.
Turning to `Brc1cccc2c(Nc3nc4ccccc4[nH]3)c[nH]c12` [Example 17, N-(7-bromo-1H-indol-3-yl)-1H-benzo[d]imidazol-2-amine], the IC50 in test [1] was no less than 10 µM.
As to `COC(=O)c1cccc2[nH]c(Nc3c[nH]c4ccc(Br)cc34)nc12` [Example 20, methyl 2-[(5-bromo-1H-indol-3-yl)amino]-1H-benzo[d]imidazole-4-carboxylate], the hSTING inhibitory activity result in test [1] is “* *”.
`Brc1cnc2[nH]cc(Nc3nc4cc(Oc5ccccc5)ccc4[nH]3)c2n1` [Example 21, 2-bromo-N-(5-phenoxy-1H-benzo[d]imidazol-2-yl)-5H-pyrrolo[2,3-b]pyrazin-7-amine]: the IC50 in test [1] is no less than 10 µM.
For `COC(=O)c1ccc2[nH]cc(Nc3nc4cc(Oc5ccccc5)ccc4[nH]3)c2c1` [Example 22, methyl 3-[(5-phenoxy-1H-benzo[d]imidazol-2-yl)amino]-1H-indole-5-carboxylate], in test [1], the hSTING inhibitory activity result is “* *”.
Still for that read-out and setting: next, `O=S(=O)(c1ccccc1)c1ccc2[nH]c(Nc3c[nH]c4ccc(Br)cc34)nc2c1` [Example 23, N-(5-bromo-1H-indol-3-yl)-5-(phenylsulfonyl)-1H-benzo[d]imidazol-2-amine]: “* *”.
As for `O=C(O)c1ccc2[nH]cc(Nc3nc4cc(Oc5ccccc5)ccc4[nH]3)c2c1` [Example 27, 3-[(5-phenoxy-1H-benzo[d]imidazol-2-yl)amino]-1H-indole-5-carboxylic acid], in test [1], the IC50 was no less than 10 µM.
For `O=C(c1ccc2[nH]cc(Nc3nc4cc(Oc5ccccc5)ccc4[nH]3)c2c1)N1CCOCC1` [Example 28, morpholino {3-[(5-phenoxy-1H-benzo[d]imidazol-2-yl)amino]-1H-indol-5-yl} methanone], the IC50 in test [1] is no less than 10 µM.
Same read-out and setting: next, `C#CCNC(=O)c1ccc2[nH]cc(Nc3nc4cc(Oc5ccccc5)ccc4[nH]3)c2c1` [Example 29, 3-[(5-phenoxy-1H-benzo[d]imidazol-2-yl)amino]-N-(prop-2-yn-1-yl)-1H-indole-5-carboxamide]: no less than 10 µM.
`O=C(Nc1ccccc1)c1ccc2[nH]cc(Nc3nc4cc(Oc5ccccc5)ccc4[nH]3)c2c1` [Example 30, 3-[(5-phenoxy-1H-benzo[d]imidazol-2-yl)amino]-N-phenyl-1H-indole-5-carboxamide]: in test [1], the hSTING inhibitory activity result is recorded as “* *”.
